Laboratory results published in ChEMBL document CHEMBL5532721, “Novel KRAS Inhibitors for Treating Non-Small-Cell Lung Cancer” (ACS Med Chem Lett, 2024).

Tests used:
[1] = Inhibition of recombinant GDP-loaded KRAS G12D mutant/recombinant SOS (unknown origin) interaction preincubated for 20 mins followed by SOS addition and measured after 30 mins by HTRF assay; parameters: species or system Homo sapiens
[2] = Inhibition of recombinant GMPPNP-loaded KRAS G12D mutant/recombinant GST-tagged RAF1 RBD (unknown origin) interaction preincubated for 20 mins followed by RAF1 RBD addition and measured after 3 hrs by HTRF assay; parameters: species or system Homo sapiens

IC50 [1] [nM] | IC50 [2] [nM] | SMILES
2 | 3 | C#Cc1c(F)ccc2cc(O)cc(-c3ncc4c(N5CCCC(O)(C(F)(F)F)C5)nc(OC[C@]56CCC[C@H]5N(C)CCC6)nc4c3F)c12 (some centres not stated)
2 | 2 | C#Cc1c(F)ccc2cc(O)cc(-c3ncc4c(N5CCCC(C#N)C5)nc(OC[C@@]56CCCN5C[C@H](F)C6)nc4c3F)c12 (some centres not stated)
6 | 3 | C#Cc1c(F)ccc2cc(O)cc(-c3ccc4c(N5C[C@@H]6C[C@H]5C(=O)N6)nc(OC[C@]56CCC[C@H]5N(C)CCC6)nc4c3F)c12
5 | 3 | C#Cc1c(F)ccc2cc(O)cc(-c3ncc4c(N5CCOCC(CO)C5)nc(OC[C@]56CCC[C@H]5N(C)CCC6)nc4c3F)c12 (some centres not stated)

The next lines start with the molecule.

SMILES | IC50 [1] [nM] | IC50 [2] [nM]
C#Cc1c(F)ccc2cc(O)cc(-c3ncc4c(N5CCCOCC5)nc(OC[C@]56CCC[C@H]5N(CC)CCC6)nc4c3F)c12 | 2 | 6
C#Cc1c(F)ccc2cc(O)cc(-c3ncc4c(N5CCOCC(CC#N)C5)nc(OC[C@]56CCC[C@H]5N(C)CCC6)nc4c3F)c12 (some centres not stated) | 2 | 2
